Source: ChEMBL document CHEMBL1201862, “PubChem BioAssay data set” (2004)
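Grown in 96-well plates, cells were treated for 48 hours with each compound at five concentrations. Insufficient inhibition: endpoint recorded as highest concentration tested. Abbreviation: GI50, concentration required for 50% inhibition of growth.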 The source made the active and inactive calls. No stated cut-off is given here; in the data, active = GI50 up to about 1.1 µM and inactive = higher.

Key:
Assay in all cases: growth of human tumour cells (NCI), 48 h
[1] = system: UACC-62
[2] = system: RPMI-8226
[3] = system: M14
[4] = system: KM12
[5] = system: MOLT-4
[6] = system: UO-31
[7] = system: SNB-19
[8] = system: SW-620
[9] = system: SK-MEL-2
[10] = system: DU-145
[11] = system: HOP-62
[12] = system: SNB-75
[13] = system: Hs-578T
[14] = system: HL-60
[15] = system: NCI/ADR-RES
[16] = system: NCI-H460
[17] = system: NCI-H226
[18] = system: SN12C
[19] = system: SF-539
[20] = system: A498

| SMILES | GI50 [1] | GI50 [2] | GI50 [3] | GI50 [4] | GI50 [5] | GI50 [6] | GI50 [7] | GI50 [8] | GI50 [9] | GI50 [10] | GI50 [11] | GI50 [12] | GI50 [13] | GI50 [14] | GI50 [15] | GI50 [16] | GI50 [17] | GI50 [18] | GI50 [19] | GI50 [20] |
| --- | --- | --- | --- | --- | --- | --- | --- | --- | --- | --- | --- | --- | --- | --- | --- | --- | --- | --- | --- | --- |
| Cc1ccc(-n2nnc(C#N)c2O)cc1 | > 100 µM (inactive) | > 100 µM (inactive) | > 100 µM (inactive) | > 100 µM (inactive) | > 100 µM (inactive) | > 100 µM (inactive) | > 100 µM (inactive) | > 100 µM (inactive) | > 100 µM (inactive) | > 100 µM (inactive) | > 100 µM (inactive) | > 100 µM (inactive) | > 100 µM (inactive) | > 100 µM (inactive) | > 100 µM (inactive) | > 100 µM (inactive) | > 100 µM (inactive) | > 100 µM (inactive) | – | – |
| Cc1ccc(S(=O)(=O)NC(=O)NC(CCCCN)C(=O)O)cc1 (centres undefined) | > 100 µM (inactive) | > 100 µM (inactive) | > 100 µM (inactive) | > 100 µM (inactive) | > 100 µM (inactive) | > 100 µM (inactive) | > 100 µM (inactive) | > 100 µM (inactive) | > 100 µM (inactive) | > 100 µM (inactive) | > 100 µM (inactive) | > 100 µM (inactive) | > 100 µM (inactive) | > 100 µM (inactive) | > 100 µM (inactive) | > 100 µM (inactive) | – | > 100 µM (inactive) | > 100 µM (inactive) | – |
| O=C1C[C@@H]2[C@@H](CCC23CCCC3)N1 | > 100 µM (inactive) | > 100 µM (inactive) | > 100 µM (inactive) | > 100 µM (inactive) | > 100 µM (inactive) | > 100 µM (inactive) | > 100 µM (inactive) | > 100 µM (inactive) | > 100 µM (inactive) | – | > 100 µM (inactive) | > 100 µM (inactive) | – | > 100 µM (inactive) | – | > 100 µM (inactive) | > 100 µM (inactive) | > 100 µM (inactive) | > 100 µM (inactive) | > 100 µM (inactive) |
| Cc1ccc(NC(=O)CC/C(CC(=O)C(C)(C)C)=N/NC(=O)C(N)=O)cc1C | > 100 µM (inactive) | > 100 µM (inactive) | > 100 µM (inactive) | > 100 µM (inactive) | > 100 µM (inactive) | > 100 µM (inactive) | > 100 µM (inactive) | > 100 µM (inactive) | > 100 µM (inactive) | – | > 100 µM (inactive) | > 100 µM (inactive) | – | > 100 µM (inactive) | – | > 100 µM (inactive) | > 100 µM (inactive) | > 100 µM (inactive) | > 100 µM (inactive) | > 100 µM (inactive) |
| C[C@]12CCC3[C@@H](CC[C@@H]4c5nonc5CC[C@]34C)C1C/C(=N/O)C2=O (some centres undefined) | 63.7 µM (inactive) | 9.48 µM (inactive) | 63.5 µM (inactive) | > 100 µM (inactive) | 59.7 µM (inactive) | 5.41 µM (inactive) | > 100 µM (inactive) | > 100 µM (inactive) | 1.53 µM (inactive) | – | > 100 µM (inactive) | 0.0885 µM (active) | – | 2.12 µM (inactive) | – | > 100 µM (inactive) | > 100 µM (inactive) | > 100 µM (inactive) | 71 µM (inactive) | > 100 µM (inactive) |
| CSC(SC)=C(C#N)C(=O)Nc1ccc(C)cc1 | 94.4 µM (inactive) | 42.2 µM (inactive) | > 100 µM (inactive) | > 100 µM (inactive) | 95.5 µM (inactive) | 61 µM (inactive) | > 100 µM (inactive) | > 100 µM (inactive) | > 100 µM (inactive) | > 100 µM (inactive) | > 100 µM (inactive) | – | > 100 µM (inactive) | 37.2 µM (inactive) | – | > 100 µM (inactive) | > 100 µM (inactive) | > 100 µM (inactive) | > 100 µM (inactive) | – |
| Oc1ccc(Br)cc1/C=N/c1c(NC2CCCCC2)oc2ccc(Br)cc12 | 38.6 µM (inactive) | 7.18 µM (inactive) | – | 21 µM (inactive) | 7.21 µM (inactive) | 31 µM (inactive) | > 100 µM (inactive) | 35.3 µM (inactive) | – | 60.3 µM (inactive) | 68.4 µM (inactive) | 37.2 µM (inactive) | – | 5.53 µM (inactive) | 45.5 µM (inactive) | 50.5 µM (inactive) | 45.3 µM (inactive) | 44.4 µM (inactive) | 61.2 µM (inactive) | 35.3 µM (inactive) |
| CC(=O)/C(=C\n1c(=S)[nH]c2ccc([N+](=O)[O-])cc21)C(=O)Nc1ccccc1C | > 100 µM (inactive) | > 100 µM (inactive) | > 100 µM (inactive) | – | > 100 µM (inactive) | – | – | > 100 µM (inactive) | > 100 µM (inactive) | > 100 µM (inactive) | > 100 µM (inactive) | – | – | > 100 µM (inactive) | > 100 µM (inactive) | > 100 µM (inactive) | > 100 µM (inactive) | > 100 µM (inactive) | 8.26 µM (inactive) | 96.8 µM (inactive) |
| CCOc1ccc2c(c1)[n+]([O-])c(-c1ccc(Br)cc1)c(N)[n+]2[O-] | 38.1 µM (inactive) | 52.4 µM (inactive) | 49 µM (inactive) | 85.5 µM (inactive) | 40.9 µM (inactive) | 67.3 µM (inactive) | 57.3 µM (inactive) | > 100 µM (inactive) | > 100 µM (inactive) | – | 67.6 µM (inactive) | > 100 µM (inactive) | – | 31.3 µM (inactive) | – | 47.3 µM (inactive) | > 100 µM (inactive) | 71 µM (inactive) | 34.4 µM (inactive) | 45.3 µM (inactive) |
| CNC(=O)N(CCC#N)CCCN(C(=O)NC)c1ccccc1 | > 100 µM (inactive) | > 100 µM (inactive) | > 100 µM (inactive) | > 100 µM (inactive) | > 100 µM (inactive) | > 100 µM (inactive) | > 100 µM (inactive) | > 100 µM (inactive) | > 100 µM (inactive) | > 100 µM (inactive) | > 100 µM (inactive) | 72.6 µM (inactive) | – | > 100 µM (inactive) | > 100 µM (inactive) | > 100 µM (inactive) | > 100 µM (inactive) | > 100 µM (inactive) | > 100 µM (inactive) | – |
| CC1=C(Cl)C[C@@H](/C(C)=C\Cl)O[C@@]1(O)C(Br)Br | 45.2 µM (inactive) | 18.2 µM (inactive) | 22.5 µM (inactive) | 54.1 µM (inactive) | 15.6 µM (inactive) | 25.3 µM (inactive) | > 100 µM (inactive) | 37.3 µM (inactive) | 28.4 µM (inactive) | 19.9 µM (inactive) | > 100 µM (inactive) | 55.6 µM (inactive) | 45.5 µM (inactive) | 6.92 µM (inactive) | – | 41.1 µM (inactive) | – | 19.5 µM (inactive) | 33.8 µM (inactive) | 31.1 µM (inactive) |
| C[C@]12CCC3[C@@H](CC[C@@H]4c5nonc5CC[C@]34C)C1CCC2=O (some centres undefined) | 17.3 µM (inactive) | 17 µM (inactive) | 18.3 µM (inactive) | 20.7 µM (inactive) | 23.2 µM (inactive) | 11.3 µM (inactive) | 40.4 µM (inactive) | 37.2 µM (inactive) | 20.3 µM (inactive) | – | 40.6 µM (inactive) | 35.4 µM (inactive) | – | 15.7 µM (inactive) | – | 19.2 µM (inactive) | 20 µM (inactive) | 21.5 µM (inactive) | 20.4 µM (inactive) | 21.4 µM (inactive) |
| C=C1CC2CC[C@@]34C[C@@H]5O[C@@H]6C(O[C@H]7CC[C@H](CC(=O)OC8[C@@H](C)C9OC%10C[C@]%11(C[C@@H]%12O[C@@]%13(C[C@@H](C)[C@@H]%12O%11)C[C@H](C)[C@@H]%11OC%12CC(C(O)CO)OC%12C[C@@H]%11O%13)OC%10CC9O[C@H]8C[C@H]8O[C@@H](CC[C@@H]1O2)C[C@@H](C)C8=C)O[C@@H]7[C@@H]6O3)C5O4 (some centres undefined) | 0.000494 µM (active) | 0.00185 µM (active) | 0.00108 µM (active) | 0.000494 µM (active) | 0.00135 µM (active) | 0.00673 µM (active) | 0.00211 µM (active) | 0.000485 µM (active) | 0.00125 µM (active) | – | 0.00141 µM (active) | 0.000434 µM (active) | – | 0.000321 µM (active) | 0.00471 µM (active) | 8.26e-05 µM (active) | 0.00179 µM (active) | 0.00313 µM (active) | 0.000933 µM (active) | 0.00197 µM (active) |
| Cc1[nH]c(O)nc1C(=O)c1ccc(-n2ccnc2)cc1 | > 100 µM (inactive) | > 100 µM (inactive) | > 100 µM (inactive) | > 100 µM (inactive) | > 100 µM (inactive) | > 100 µM (inactive) | > 100 µM (inactive) | > 100 µM (inactive) | > 100 µM (inactive) | – | > 100 µM (inactive) | > 100 µM (inactive) | – | > 100 µM (inactive) | – | > 100 µM (inactive) | > 100 µM (inactive) | > 100 µM (inactive) | > 100 µM (inactive) | > 100 µM (inactive) |
| CC1OC(=O)C(C(C)C)NC(=O)C(C(C)C)OC(=O)C(C(C)C)NC(=O)C(C)OC(=O)C(C(C)C)NC(=O)C(C(C)C)OC(=O)C(C(C)C)NC(=O)C(C)OC(=O)C(C(C)C)NC(=O)C(C(C)C)OC(=O)C(C(C)C)NC1=O (centres undefined) | 0.0025 µM (active) | 0.0025 µM (active) | < 0.0001 µM (active) | 0.00272 µM (active) | 0.0025 µM (active) | 0.00281 µM (active) | 0.00349 µM (active) | 0.0025 µM (active) | 0.00288 µM (active) | 0.000102 µM (active) | 0.0025 µM (active) | 0.00301 µM (active) | – | 0.00275 µM (active) | 0.00728 µM (active) | 0.00279 µM (active) | – | 0.00273 µM (active) | 0.00333 µM (active) | 0.0025 µM (active) |
